Source: patent US8946269B2, “Crystalline forms of a factor Xa inhibitor” (Portola Pharmaceuticals, Inc., priority 2010, dated 2015)

Legend:
Assay type in all cases: physicochemical
[1] = Solubility at 25° C. (slurried in solvent 24 hours, liquid quantified by HPLC)
Description: Solids were checked by XRPD and the liquid was submitted for quantification by HPLC.

[2] = Physical and chemical stability on storage
Description: FIG. 10 provides XRPD patterns from turnover experiments. A is an XRPD of Form II.

pKa determination = settings: amidine
Protocol: This can be performed on a Sirius GlpKa instrument with a D-PAS attachment. Measurements can be made by UV in aqueous and by potentiometric in methanol and water mixtures at 25° C. The titration media is ionic strength adjusted with 0.15 M KCl. The values found in the methanol and water mixtures are corrected to 0% co-solvent via a Yasuda-Shedlovsky extrapolation. The data can be refined using Refinement Pro software version 1.0. Prediction of pKa values can be made using ACD pKa prediction software Ver. 8.08.

SMILES | Solubility at 25° C. ([1]; Acetone) | Solubility at 25° C. ([1]; Anhydrous ethanol (0.03% water)) | Solubility at 25° C. ([1]; DMF) | Solubility at 25° C. ([1]; IPA) | Solubility at 25° C. ([1]; MTBE) | Solubility at 25° C. ([1]; MeOH, yellow solvate formed) | Solubility at 25° C. ([1]; in ethanol (summary table), listed as Betrixaban Maleate Form II) [mg/mL in ethanol] | time remaining physically and chemically stable ([2]; 25° C. and 60% RH) | time remaining physically and chemically stable ([2]; 40° C. and 75% RH) | pKa (pKa determination)
COc1ccc(NC(=O)c2ccc(C(=N)N(C)C)cc2)c(C(=O)Nc2ccc(Cl)cn2)c1 [Form II] | 0.99 | 4.8 | >246 | 0.63 | 0.01 | 37.9 (yellow | 4.8 | at least 6 months | at least 6 months | –
COc1ccc(NC(=O)c2ccc(C(=N)N(C)C)cc2)c(C(=O)Nc2ccc(Cl)cn2)c1 [Form I, reference compound] | – | – | – | – | 0.001 | – | – | – | – | 11.4
